{"source": "paper PMC9057082", "about": "(RSC Advances, 2020)", "assay": "Total antioxidant capacity", "assay_type": "biochemical", "settings": "residual hydrogen peroxide measured at 505 nm; mean ± standard deviation"}
{"smiles": "O=C1O[C@H]([C@@H](O)CO)C(O)=C1O", "note": "[Ascorbic acid]", "values": [{"measurement": "Total anti-oxidant activity IC50", "result": "174.8 ± 12.3", "unit": "µg/mL"}]}
